Laboratory results as given in patent US9120249B2, “Implant device release agents and methods of using same” (ENDO PHARMACEUTICALS SOLUTIONS INC., priority 2007, dated 2015).

Tests used:
[1] = cited from earlier work; for CMC: critical micelle concentration; for HLB: hydrophilic-lipophilic balance
[2] = Tensile strength of gamma irradiated cartridges, initially and after storage at 37° C.; type: physicochemical; details: initially after irradiation and after 3 and 8 months storage at 37° C.
Method: Approximately 15-20 cartridges of each formulation were prepared and gamma irradiated at 10-11 kGy. The tensile strength of five cartridges from each formulation was measured initially. The remaining cartridges were stored at 37° C. and tested for tensile strength again at 3 and 8 months.

tensile strength of cartridges, in words [2] | Molecule | CMC [1] | HLB [1]
 | Sucrose monolaurate | 0.2 mM | ~8
 | CCCCCCCC/C=C\CCCCCCCC(=O)OCCOCC(OCCO)C1OCC(OCCO)C1OCCO (stereo not shown) [Tween 80] | 0.012 mM | 15
seems to be effective as well | O=C1O[C@H]([C@@H](O)CO)C(O)=C1O [Ascorbic acid, ascorbic acid] |  | 
 | Triton X-100 | 0.2 to 0.9 mM | 13.5
